Assays:
Format in all cases: biochemical
[1] = target: T1, human Flt-3 kinase domain R571-S993 (Homo sapiens, UniProt P36888); assay: flt-3 Luciferase-Coupled Chemiluminescent Kinase assay (LCCA); settings: 5 μM ATP, 3 μM poly-EY, 5 nM Flt-3; read-out: flt-3 inhibition IC50
T1 construct: baculovirus expressed human Flt-3 kinase domain R571-S993; made in house
T1 sequence (P36888 571-993): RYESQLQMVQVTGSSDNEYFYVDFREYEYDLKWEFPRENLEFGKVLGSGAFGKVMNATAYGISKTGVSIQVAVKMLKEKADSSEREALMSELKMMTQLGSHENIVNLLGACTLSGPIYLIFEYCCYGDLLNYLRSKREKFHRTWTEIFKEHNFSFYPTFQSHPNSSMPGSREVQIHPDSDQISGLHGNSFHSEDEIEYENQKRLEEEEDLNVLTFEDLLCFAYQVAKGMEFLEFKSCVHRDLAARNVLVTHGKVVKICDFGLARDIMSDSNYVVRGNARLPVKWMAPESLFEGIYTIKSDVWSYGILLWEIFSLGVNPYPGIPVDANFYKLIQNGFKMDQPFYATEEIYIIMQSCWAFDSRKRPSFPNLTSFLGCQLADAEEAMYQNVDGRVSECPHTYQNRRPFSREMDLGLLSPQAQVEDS
Procedure: (§1) Kinase activity and compound inhibition are investigated using one or more of the three assay formats described below. The ATP concentrations for each assay are selected to be close to the Michaelis-Menten constant (KM) for each individual kinase. Dose-response experiments are performed at 10 different inhibitor concentrations in a 384-well plate format. The data are fitted to the following four-parameter equation: Y=Min+(Max−Min)/(1+(X/IC50)^H) where Y is the observed signal, X is the inhibitor concentration, Min is the background signal in the absence of enzyme (0% enzyme activity), Max is the signal in the absence of inhibitor (100% enzyme activity), IC50 is the inhibitor concentration at 50% enzyme inhibition and H represents the empirical Hill's slope to measure the cooperativity. Typically H is close to unity. c-Met Assay
Biochemical activity for flt-3 was assessed using a Luciferase-Coupled Chemiluminescent Kinase assay (LCCA) format. Kinase activity was measured as the percent ATP remaining following the kinase reaction. Remaining ATP was detected by luciferase-luciferin-coupled chemiluminescence. Specifically, the reaction was initiated by mixing test compounds, 5 μM ATP, 3 μM poly-EY and 5 nM Flt-3 (baculovirus expressed human Flt-3 kinase domain R571-S993) in a 20 uL assay buffer (20 mM Tris-HCL pH7.5, 10 mM MgCl2, 0.01% Triton X-100, 1 mM DTT, 2 mM MnCl2). The mixture is incubated at ambient temperature for 3 hours after which 20 uL luciferase-luciferin mix is added and the chemiluminescent signal read using a Wallac Victor^2 reader. The luciferase-luciferin mix consists of 50 mM HEPES, pH 7.8, 8.5 ug/mL oxalic acid (pH 7.8), 5 (or 50) mM DTT, 0.4% Triton X-100, 0.25 mg/mL coenzyme A, 63 uM AMP, 28 ug/mL luciferin and 40,000 units of light/mL luciferase.

[2] = target: T2, human KDR kinase domain D807-V1356 (Homo sapiens, UniProt P35968); assay: KDR Luciferase-Coupled Chemiluminescent Kinase assay (LCCA); settings: 3 μM ATP, 1.6 μM poly-EY, 5 nM KDR; read-out: KDR inhibition IC50
T2 construct: baculovirus expressed human KDR kinase domain D807-V1356; made in house
Procedure: as §1
KDR biochemical activity was assessed using a Luciferase-Coupled Chemiluminescent Kinase assay (LCCA) format. Kinase activity was measured as the percent ATP remaining following the kinase reaction. Remaining ATP was detected by luciferase-luciferin-coupled chemiluminescence. Specifically, the reaction was initiated by mixing test compounds, 3 μM ATP, 1.6 μM poly-EY and 5 nM KDR (baculovirus expressed human KDR kinase domain D807-V1356) in a 20 uL assay buffer (20 mM Tris-HCL pH7.5, 10 mM MgCl2, 0.01% Triton X-100, 1 mM DTT, 3 mM MnCl2). The mixture is incubated at ambient temperature for 4 hours after which 20 uL luciferase-luciferin mix is added and the chemiluminescent signal read using a Wallac Victor^2 reader. The luciferase-luciferin mix consists of 50 mM HEPES, pH 7.8, 8.5 ug/mL oxalic acid (pH 7.8), 5 (or 50) mM DTT, 0.4% Triton X-100, 0.25 mg/mL coenzyme A, 63 uM AMP, 28 ug/mL luciferin and 40,000 units of light/mL luciferase.

[3] = target: human c-Met kinase domain P948-S1343 (Homo sapiens, UniProt P08581); assay: c-Met Luciferase-Coupled Chemiluminescent Kinase assay (LCCA); settings: 1 μM ATP, 1 μM poly-EY, 10 nM c-Met; read-out: c-Met inhibition IC50
Procedure: as §1
c-Met biochemical activity was assessed using a Luciferase-Coupled Chemiluminescent Kinase assay (LCCA) format as described above. Again, kinase activity was measured as the percent ATP remaining following the kinase reaction. Remaining ATP was detected by luciferase-luciferin-coupled chemiluminescence. Specifically, the reaction was initiated by mixing test compounds, 1 μM ATP, 1 μM poly-EY and 10 nM c-Met (baculovirus expressed human c-Met kinase domain P948-S1343) in a 20 uL assay buffer (20 mM Tris-HCL pH7.5, 10 mM MgCl2, 0.02% Triton X-100, 100 mM DTT, 2 mM MnCl2). The mixture is incubated at ambient temperature for 2 hours after which 20 uL luciferase-luciferin mix is added and the chemiluminescent signal read using a Wallac Victor^2 reader. The luciferase-luciferin mix consists of 50 mM HEPES, pH 7.8, 8.5 ug/mL oxalic acid (pH 7.8), 5 (or 50) mM DTT, 0.4% Triton X-100, 0.25 mg/mL coenzyme A, 63 uM AMP, 28 ug/mL luciferin and 40,000 units of light/mL luciferase.

T2 sequence (P35968 807-1356): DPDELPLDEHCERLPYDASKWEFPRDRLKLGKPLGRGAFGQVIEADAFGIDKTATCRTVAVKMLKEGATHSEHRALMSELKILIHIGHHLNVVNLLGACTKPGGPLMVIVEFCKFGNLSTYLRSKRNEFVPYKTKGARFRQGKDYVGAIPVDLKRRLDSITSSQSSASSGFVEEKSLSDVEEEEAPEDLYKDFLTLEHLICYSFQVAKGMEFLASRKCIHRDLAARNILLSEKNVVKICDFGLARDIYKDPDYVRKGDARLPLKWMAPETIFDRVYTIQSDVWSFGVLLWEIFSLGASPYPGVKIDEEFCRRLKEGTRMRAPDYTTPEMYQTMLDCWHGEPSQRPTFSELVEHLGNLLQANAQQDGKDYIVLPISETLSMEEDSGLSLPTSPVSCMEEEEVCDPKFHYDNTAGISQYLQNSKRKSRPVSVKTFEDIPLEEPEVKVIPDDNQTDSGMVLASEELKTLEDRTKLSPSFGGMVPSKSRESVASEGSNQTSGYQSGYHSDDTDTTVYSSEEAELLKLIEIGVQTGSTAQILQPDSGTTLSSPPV
human c-Met kinase domain P948-S1343, sequence (P08581 1011-1367 limits assumed): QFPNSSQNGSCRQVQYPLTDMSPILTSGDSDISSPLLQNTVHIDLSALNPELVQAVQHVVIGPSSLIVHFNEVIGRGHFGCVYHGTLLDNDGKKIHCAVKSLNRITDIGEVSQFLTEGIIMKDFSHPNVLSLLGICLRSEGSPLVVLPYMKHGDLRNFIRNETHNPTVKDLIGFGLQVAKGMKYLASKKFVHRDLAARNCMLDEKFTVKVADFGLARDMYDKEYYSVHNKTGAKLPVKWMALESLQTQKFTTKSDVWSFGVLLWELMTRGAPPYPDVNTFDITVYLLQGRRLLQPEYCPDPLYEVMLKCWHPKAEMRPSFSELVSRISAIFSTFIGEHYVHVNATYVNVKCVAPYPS

| IC50 [1] [nM] | IC50 [2] [nM] | IC50 [3] [nM] | Structure (SMILES) |
| --- | --- | --- | --- |
| < 50 | 50 to 500 | 50 to 500 | O=C(CC(=O)Nc1ccc(Oc2ncnc3[nH]ccc23)c(F)c1)Nc1ccc(F)cc1 [Entry 1, N-(4-fluorophenyl)-N′-[3-fluoro-4-(7H-pyrrolo[2,3-d]pyrimidin-4-yloxy)phenyl]propanediamide] |
| 50 to 500 | < 50 | < 50 | O=C(Nc1ccc(F)cc1)C1(C(=O)Nc2ccc(Oc3ncnc4[nH]ccc34)c(F)c2)CC1 [Entry 2, N-(4-fluorophenyl)-N′-[3-fluoro-4-(7H-pyrrolo[2,3-d]pyrimidin-4-yloxy)phenyl]cyclopropane-1,1-dicarboxamide] |
| > 500 | 50 to 500 | < 50 | O=C(Cc1ccccc1)NC(=S)Nc1ccc(Oc2ncnc3[nH]ccc23)c(F)c1 [Entry 3, N-({[3-fluoro-4-(7H-pyrrolo[2,3-d]pyrimidin-4-yloxy)phenyl]amino}carbonothioyl)-2-phenylacetamide] |
| – | > 500 | > 500 | O=C(Nc1ccc(F)cc1)C1(C(=O)Nc2ccc(Oc3ncnc4c3cnn4C3CCCCO3)cc2)CC1 (stereo not shown) [Entry 4, N-(4-fluorophenyl)-N′-(4-{[1-(tetrahydro-2H-pyran-2-yl)-1H-pyrazolo[3,4-d]pyrimidin-4-yl]oxy}phenyl)cyclopropane-1,1-dicarboxamide] |
| – | > 500 | > 500 | O=C(Cc1ccccc1)NC(=S)Nc1ccc(Oc2ncnc3c2cnn3C2CCCCO2)cc1 (stereo not shown) [Entry 5, 2-phenyl-N-{[(4-{[1-(tetrahydro-2H-pyran-2-yl)-1H-pyrazolo[3,4-d]pyrimidin-4-yl]oxy}phenyl)amino]carbonothioyl}acetamide] |
| – | 50 to 500 | > 500 | O=C(Nc1ccc(F)cc1)C1(C(=O)Nc2ccc(Oc3ncnc4[nH]ncc34)cc2)CC1 [Entry 6, N-(4-fluorophenyl)-N′-[4-(1H-pyrazolo[3,4-d]pyrimidin-4-yloxy)phenyl]cyclopropane-1,1-dicarboxamide] |
| – | > 500 | > 500 | O=C(Cc1ccccc1)NC(=S)Nc1ccc(Oc2ncnc3[nH]ncc23)cc1 [Entry 7, 2-phenyl-N-({[4-(1H-pyrazolo[3,4-d]pyrimidin-4-yloxy)phenyl]amino}carbonothioyl)acetamide] |
| – | > 500 | > 500 | O=C(Nc1ccc(F)cc1)C1(C(=O)Nc2ccc(Oc3ncnc4c3ncn4C3CCCCO3)cc2)CC1 (stereo not shown) [Entry 8, N-(4-fluorophenyl)-N′-(4-{[9-(tetrahydro-2H-pyran-2-yl)-9H-purin-6-yl]oxy}phenyl)cyclopropane-1,1-dicarboxamide] |
| – | > 500 | > 500 | O=C(Cc1ccccc1)NC(=S)Nc1ccc(Oc2ncnc3c2ncn3C2CCCCO2)cc1 (stereo not shown) [Entry 9, 2-phenyl-N-{[(4-{[9-(tetrahydro-2H-pyran-2-yl)-9H-purin-6-yl]oxy}phenyl)amino]carbonothioyl}acetamide] |
| – | > 500 | > 500 | O=C(Nc1ccc(F)cc1)C1(C(=O)Nc2ccc(Oc3ncnc4[nH]cnc34)cc2)CC1 [Entry 10, N-(4-fluorophenyl)-N′-[4-(9H-purin-6-yloxy)phenyl]cyclopropane-1,1-dicarboxamide] |
| – | > 500 | > 500 | O=C(Cc1ccccc1)NC(=S)Nc1ccc(Oc2ncnc3[nH]cnc23)cc1 [Entry 11, 2-phenyl-N-({[4-(9H-purin-6-yloxy)phenyl]amino}carbonothioyl)acetamide] |
| < 50 | < 50 | < 50 | O=C(NCCN1CCOCC1)c1cc2c(Oc3ccc(NC(=O)C4(C(=O)Nc5ccc(F)cc5)CC4)cc3F)ncnc2[nH]1 [Entry 12, N-{3-fluoro-4-[(6-{[(2-morpholin-4-ylethyl)amino]carbonyl}-7H-pyrrolo[2,3-d]pyrimidin-4-yl)oxy]phenyl}-N′-(4-fluorophenyl)cyclopropane-1,1-dicarboxamide] |
